{"source": "patent US10597388B2", "about": "“Pyridazinone herbicides” (FMC CORPORATION, priority 2014, dated 2020)", "type_in_all_cases": "in vivo", "key": {"[1]": {"system": "waterhemp_RES1 (ALS & Triazine resistant common waterhemp, Amaranthus rudis)", "test": "Test E greenhouse herbicide test, postemergence", "how_it_was_run": "(§1)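 Postemergence spray of formulated test chemicals onto resistant waterhemp at 1- to 4-leaf stage (2–18 cm tall), grown in peat/vermiculite potting medium. Kept in greenhouse 14 to 21 d, then visually rated against untreated controls on a 0–100 scale (0 no effect, 100 complete control).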"}, "[2]": {"system": "waterhemp_RES2 (ALS & HPPD resistant common waterhemp, Amaranthus rudis)", "test": "Test E greenhouse herbicide test, postemergence", "how_it_was_run": "as §1"}, "[3]": {"system": "mustard, wild (wild mustard, Sinapis arvensis)", "test": "Test D controlled growth environment herbicide test, pre- and postemergence", "how_it_was_run": "(§2)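 Pre-emergence: seeds sown in silt loam soil were sprayed with compound in a non-phytotoxic solvent mix containing surfactant. Post-emergence: plants at 2 to 18 cm (1- to 4-leaf stage) in peat moss/vermiculite medium got the same formulation. Visual 0–100 rating versus controls after 14 to 21 d.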"}, "[4]": {"system": "deadnettle (henbit deadnettle, Lamium amplexicaule)", "test": "Test D controlled growth environment herbicide test, pre- and postemergence", "how_it_was_run": "as §2"}, "[5]": {"system": "blackgrass (Alopecurus myosuroides)", "test": "Test D controlled growth environment herbicide test, pre- and postemergence", "how_it_was_run": "as §2"}, "[6]": {"system": "field poppy (Papaver rhoeas)", "test": "Test D controlled growth environment herbicide test, pre- and postemergence", "how_it_was_run": "as §2"}, "[7]": {"system": "lambsquarters (Chenopodium album)", "test": "Test D controlled growth environment herbicide test, pre- and postemergence", "how_it_was_run": "as §2"}, "[8]": {"system": "barley, winter (winter barley, Hordeum vulgare)", "test": "Test D controlled growth environment herbicide test, pre- and postemergence", "how_it_was_run": "as §2"}, "[9]": {"system": "foxtail, green (green foxtail, Setaria viridis)", "test": "Test D controlled growth environment herbicide test, pre- and postemergence", "how_it_was_run": "as §2"}, "[10]": {"system": "chamomile (scentless chamomile, Matricaria inodora)", "test": "Test D controlled growth environment herbicide test, pre- and postemergence", "how_it_was_run": "as §2"}, "[11]": {"system": "windgrass (Apera spica-venti)", "test": "Test D controlled growth environment herbicide test, pre- and postemergence", "how_it_was_run": "as §2"}, "[12]": {"system": "radish, wild (wild radish, Raphanus raphanistrum)", "test": "Test D controlled growth environment herbicide test, pre- and postemergence", "how_it_was_run": "as §2"}, "[13]": {"conditions": "16 g ai/ha, visual, scale 0 no effect to 100 complete control"}, "[14]": {"conditions": "31 g ai/ha, visual, scale 0 no effect to 100 complete control"}, "[15]": {"conditions": "125 g ai/ha, scale 0 to 100 (0 no effect, 100 complete control)"}, "[16]": {"conditions": "Postemergence, 31 g ai/ha, scale 0 to 100 (0 no effect, 100 complete control)"}, "[17]": {"conditions": "Postemergence, 125 g ai/ha, visual rating on scale 0 (no effect) to 100 (complete control), 14 to 21 d"}, "[18]": {"conditions": "Postemergence, 250 g ai/ha, scale 0 to 100 (0 no effect, 100 complete control)"}, "[19]": {"conditions": "Preemergence, 125 g ai/ha, scale 0 to 100 (0 no effect, 100 complete control)"}, "[20]": {"conditions": "Preemergence, 250 g ai/ha, scale 0 to 100, 0 no effect, 100 complete control"}, "[21]": {"conditions": "postemergence, 62 g ai/ha, scale 0 to 100, 0 no effect, 100 complete control"}, "[22]": {"conditions": "Preemergence, 62 g ai/ha, scale 0 to 100 (0 no effect, 100 complete control)"}}}
{"compound": "CCCC(=O)Oc1c(C)nn(C)c(=O)c1-c1c(C)sc2ccc(C)cc12", "note": "[Compound 105]", "values": [{"measurement": "Plant response rating, Waterhemp_RES1", "setting": "[1]; [13]", "value": 80}, {"measurement": "Plant response rating, Waterhemp_RES1", "setting": "[1]; [14]", "value": 80}, {"measurement": "Plant response rating, Waterhemp_RES1", "setting": "[1]; [15]", "value": 100}, {"measurement": "Plant response rating, Waterhemp_RES2", "setting": "[2]; [13]", "value": 40}, {"measurement": "Plant response rating, Waterhemp_RES2", "setting": "[2]; [14]", "value": 50}, {"measurement": "Plant response rating, Waterhemp_RES2", "setting": "[2]; [15]", "value": 70}, {"measurement": "Mustard, Wild plant response rating", "setting": "[3]; [16]", "value": 5}, {"measurement": "Plant response rating, Mustard, Wild", "setting": "[3]; [17]", "value": 40}, {"measurement": "Plant response rating, Mustard, Wild", "setting": "[3]; [18]", "value": 75}, {"measurement": "Plant response rating (scale of 0 to 100), Mustard, Wild", "setting": "[3]; Preemergence, 31 g ai/ha", "value": 10}, {"measurement": "Plant response rating (scale of 0 to 100), Mustard, Wild", "setting": "[3]; Preemergence, 62 g ai/ha", "value": 0}, {"measurement": "Plant response rating, Mustard, Wild", "setting": "[3]; [19]", "value": 0}, {"measurement": "Plant response rating, Mustard, Wild", "setting": "[3]; [20]", "value": 20}, {"measurement": "Plant response rating, Mustard, Wild", "setting": "[3]; [21]", "value": 25}, {"measurement": "Deadnettle plant response rating", "setting": "[4]; [16]", "value": 10}, {"measurement": "Plant response rating, Deadnettle", "setting": "[4]; [17]", "value": 20}, {"measurement": "Plant response rating, Deadnettle", "setting": "[4]; [18]", "value": 30}, {"measurement": "Plant response rating (scale of 0 to 100), Deadnettle", "setting": "[4]; Preemergence, 62 g ai/ha", "value": 10}, {"measurement": "Plant response rating, Deadnettle", "setting": "[4]; [19]", "value": 15}, {"measurement": "Plant response rating, Deadnettle", "setting": "[4]; [20]", "value": 65}, {"measurement": "Plant response rating, Deadnettle", "setting": "[4]; [21]", "value": 10}, {"measurement": "Blackgrass plant response rating", "setting": "[5]; [16]", "value": 15}, {"measurement": "Plant response rating, Blackgrass", "setting": "[5]; [17]", "value": 65}, {"measurement": "Plant response rating, Blackgrass", "setting": "[5]; [18]", "value": 65}, {"measurement": "Plant response rating (scale of 0 to 100), Blackgrass", "setting": "[5]; Preemergence, 31 g ai/ha", "value": 35}, {"measurement": "Plant response rating, Blackgrass", "setting": "[5]; [22]", "value": 50}, {"measurement": "Plant response rating, Blackgrass", "setting": "[5]; [19]", "value": 60}, {"measurement": "Plant response rating, Blackgrass", "setting": "[5]; [20]", "value": 75}, {"measurement": "Plant response rating, Blackgrass", "setting": "[5]; [21]", "value": 25}, {"measurement": "Field Poppy plant response rating", "setting": "[6]; [16]", "value": 70}, {"measurement": "Plant response rating, Field Poppy", "setting": "[6]; [17]", "value": 80}, {"measurement": "Plant response rating, Field Poppy", "setting": "[6]; [18]", "value": 80}, {"measurement": "Plant response rating (scale of 0 to 100), Field Poppy", "setting": "[6]; Preemergence, 31 g ai/ha", "value": 100}, {"measurement": "Plant response rating (scale of 0 to 100), Field Poppy", "setting": "[6]; Preemergence, 62 g ai/ha", "value": 100}, {"measurement": "Plant response rating, Field Poppy", "setting": "[6]; [19]", "value": 100}, {"measurement": "Plant response rating, Field Poppy", "setting": "[6]; [20]", "value": 100}, {"measurement": "Plant response rating, Field Poppy", "setting": "[6]; [21]", "value": 75}, {"measurement": "Lambsquarters plant response rating", "setting": "[7]; [16]", "value": 85}, {"measurement": "Plant response rating, Lambsquarters", "setting": "[7]; [17]", "value": 90}, {"measurement": "Plant response rating, Lambsquarters", "setting": "[7]; [18]", "value": 95}, {"measurement": "Plant response rating (scale of 0 to 100), Lambsquarters", "setting": "[7]; Preemergence, 31 g ai/ha", "value": 95}, {"measurement": "Plant response rating (scale of 0 to 100), Lambsquarters", "setting": "[7]; Preemergence, 62 g ai/ha", "value": 100}, {"measurement": "Plant response rating, Lambsquarters", "setting": "[7]; [19]", "value": 100}, {"measurement": "Plant response rating, Lambsquarters", "setting": "[7]; [20]", "value": 100}, {"measurement": "Plant response rating, Lambsquarters", "setting": "[7]; [21]", "value": 95}, {"measurement": "Barley, Winter plant response rating", "setting": "[8]; [16]", "value": 0}, {"measurement": "Plant response rating, Barley, Winter", "setting": "[8]; [17]", "value": 10}, {"measurement": "Plant response rating, Barley, Winter", "setting": "[8]; [18]", "value": 15}, {"measurement": "Plant response rating (scale of 0 to 100), Barley, Winter", "setting": "[8]; Preemergence, 31 g ai/ha", "value": 5}, {"measurement": "Plant response rating, Barley, Winter", "setting": "[8]; [22]", "value": 10}, {"measurement": "Plant response rating, Barley, Winter", "setting": "[8]; [19]", "value": 10}, {"measurement": "Plant response rating, Barley, Winter", "setting": "[8]; [20]", "value": 25}, {"measurement": "Plant response rating, Barley, Winter", "setting": "[8]; [21]", "value": 10}, {"measurement": "Foxtail, Green plant response rating", "setting": "[9]; [16]", "value": 70}, {"measurement": "Plant response rating, Foxtail, Green", "setting": "[9]; [17]", "value": 75}, {"measurement": "Plant response rating, Foxtail, Green", "setting": "[9]; [18]", "value": 80}, {"measurement": "Plant response rating (scale of 0 to 100), Foxtail, Green", "setting": "[9]; Preemergence, 31 g ai/ha", "value": 45}, {"measurement": "Plant response rating (scale of 0 to 100), Foxtail, Green", "setting": "[9]; Preemergence, 62 g ai/ha", "value": 55}, {"measurement": "Plant response rating, Foxtail, Green", "setting": "[9]; [19]", "value": 65}, {"measurement": "Plant response rating, Foxtail, Green", "setting": "[9]; [20]", "value": 100}, {"measurement": "Plant response rating, Foxtail, Green", "setting": "[9]; [21]", "value": 70}, {"measurement": "Chamomile plant response rating", "setting": "[10]; [16]", "value": 80}, {"measurement": "Plant response rating, Chamomile", "setting": "[10]; [17]", "value": 100}, {"measurement": "Plant response rating, Chamomile", "setting": "[10]; [18]", "value": 100}, {"measurement": "Plant response rating, Chamomile", "setting": "[10]; [21]", "value": 85}, {"measurement": "Windgrass plant response rating", "setting": "[11]; [16]", "value": 60}, {"measurement": "Plant response rating, Windgrass", "setting": "[11]; [17]", "value": 80}, {"measurement": "Plant response rating, Windgrass", "setting": "[11]; [18]", "value": 85}, {"measurement": "Plant response rating (scale of 0 to 100), Windgrass", "setting": "[11]; Preemergence, 31 g ai/ha", "value": 75}, {"measurement": "Plant response rating (scale of 0 to 100), Windgrass", "setting": "[11]; Preemergence, 62 g ai/ha", "value": 80}, {"measurement": "Plant response rating, Windgrass", "setting": "[11]; [19]", "value": 80}, {"measurement": "Plant response rating, Windgrass", "setting": "[11]; [20]", "value": 95}, {"measurement": "Plant response rating, Windgrass", "setting": "[11]; [21]", "value": 70}, {"measurement": "Radish, Wild plant response rating", "setting": "[12]; [16]", "value": 5}, {"measurement": "Plant response rating, Radish, Wild", "setting": "[12]; [17]", "value": 20}, {"measurement": "Plant response rating, Radish, Wild", "setting": "[12]; [18]", "value": 70}, {"measurement": "Plant response rating (scale of 0 to 100), Radish, Wild", "setting": "[12]; Preemergence, 62 g ai/ha", "value": 15}, {"measurement": "Plant response rating, Radish, Wild", "setting": "[12]; [19]", "value": 35}, {"measurement": "Plant response rating, Radish, Wild", "setting": "[12]; [20]", "value": 55}, {"measurement": "Plant response rating, Radish, Wild", "setting": "[12]; [21]", "value": 15}]}
